Calls of active or inactive are those of the source.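 How the source made its calls: active means IC50 below 20 µM in the dose response test; inactive means the rest.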

For this assay, the target named is Type-1 angiotensin II receptor (Homo sapiens) (UniProt P30556). Briefly: AT1 receptor antagonists, beta-arrestin recruitment, SAR follow-up, selectivity assay for APJ antagonist project, cell-based, CHO-K1 PathHunter, luminescence, set 2 (AID 488994). The note with it: CHO-K1 AGTR1 PathHunter beta-arrestin. For orientation: Recruitment of arrestin is a read-out of receptor activation apart from second messengers.
Chain of Type-1 angiotensin II receptor (Homo sapiens) (P30556 whole entry, looked up): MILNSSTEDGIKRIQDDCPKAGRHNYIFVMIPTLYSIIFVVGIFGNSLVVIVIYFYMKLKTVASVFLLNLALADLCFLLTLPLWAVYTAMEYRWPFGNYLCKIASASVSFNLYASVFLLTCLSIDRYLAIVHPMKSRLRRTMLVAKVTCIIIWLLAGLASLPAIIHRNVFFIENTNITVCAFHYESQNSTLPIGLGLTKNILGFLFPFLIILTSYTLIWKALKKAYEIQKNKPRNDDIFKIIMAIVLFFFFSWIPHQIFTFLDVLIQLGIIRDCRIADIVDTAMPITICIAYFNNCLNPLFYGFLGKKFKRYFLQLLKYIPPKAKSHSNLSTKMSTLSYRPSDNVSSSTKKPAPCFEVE
Take `Cc1ccnc(SCc2cc(=O)c(OCc3ccc(Cl)c([N+](=O)[O-])c3)co2)n1`: the IC50 was > 79 µM (inactive).
Next, `COc1cc(CSc2nc(C)cc(C)n2)ccc1OC(=O)c1cccnc1`: > 79 µM (inactive); `Cc1ccnc(SCc2cc(=O)c(OC(=O)c3ccc([N+](=O)[O-])o3)co2)n1`: > 79 µM (inactive).
Next, `Cc1ccnc(SCc2cc(=O)c(OC(=O)C(C)C)co2)n1`: > 79 µM (inactive); `Cc1ccnc(SCc2cc(=O)c(OC(=O)c3ccno3)co2)n1`: > 79 µM (inactive).
The figure for `COc1cc(CSc2nc(C)cc(C)n2)ccc1OC(=O)c1ccc([N+](=O)[O-])cc1` is > 79 µM (inactive); for `CC(=O)Oc1coc(CSc2nccc(C)n2)cc1=O` it is > 79 µM (inactive); for `Cc1ccnc(SCc2cc(=O)c(OC(=O)C(C)(C)C)co2)n1` it is > 79 µM (inactive).
As for `O=C(Nc1ccc(CSc2ncccn2)cc1)c1ccccc1`, the IC50 was > 79 µM (inactive).
Next, `COc1cc(CSc2nc(C)cc(C)n2)ccc1OC(=O)c1ccccc1`: > 79 µM (inactive).

What is called IC50 is the concentration needed to halve the response being measured.

For the origin of these results see PubChem BioAssay AID488994 (Sanford-Burnham Center for Chemical Genomics, 2010).
